Assay: Partition coefficient (logP)
Type: physicochemical
Settings: octanol/water

Compound | logP | logP (read-out: logP)
CCCCCCCOC(C)C1=C(C)c2cc3[nH]c(c4c5[nH]c(cc6nc(cc1n2)[C@H](C)[C@H]6CC)c(C)c5C(=O)N(CCCCCC)C4=O)[C@@H](CCC(=O)OCCC)[C@@H]3C (stereo partly drawn) | 11.19 | –
CCCCCCN1C(=O)C2=C(C)c3cc4[nH]c(cc5[nH]c(cc6nc(c(c2n3)C1=O)[C@@H](CCC(=O)OCCC)[C@@H]6C)c(C)c5C(C)OCCC)[C@H](C)[C@H]4CC (stereo partly drawn) | 9.16 | –
CCCCCCN1C(=O)c2c3nc(cc4[nH]c(cc5nc(cc6[nH]c2c(c6C)C1=O)[C@H](CC)[C@H]5C)c(C(C)OC)c4C)[C@@H](C)[C@@H]3CCC(=O)OCCC (stereo partly drawn) | – | 8.18

Source: ChEMBL document CHEMBL1135795, “Bacteriopurpurinimides: highly stable and potent photosensitizers for photodynamic therapy” (J Med Chem, 2002)
